What was measured:
[1] = test system: C57Bl/6 mice; assay: mobilization of colony-forming progenitors to peripheral blood, CFU-C assay; format: in vivo; settings: C57Bl/6 mice, FIG. 8b
Procedure: Whether CASIN administration can induce mobilization of HSC/Ps to peripheral blood of C57Bl/6 mice, mimicking the phenotype observed in Cdc42 conditional knockout mice, was evaluated. First of all, mobilization of hematopoietic progenitor cells was examined by CFU-C assays functionally (FIG. 3a). […] Secondarily, to further explore the ability of CASIN to mobilize LT-HSC which is crucial for long-term repopulation of the mobilized cells, serial transplantations were carried out, where 20 million PB from CASIN-mobilized C57Bl/6 mice was transplanted into primary recipient of NOD/SCID mice, and subsequent secondary and tertiary transplants were finished as well using prior BMs (FIG. 3c). Donor chimerisms were assessed by using H2K^b congenic marker which is positive for donors of C57Bl/6 strain and negative for recipients of NOD/SCID strain. […] Therefore, the studies show CASIN can efficiently mobilize colony-forming hematopoietic progenitors and LT-HSCs with self-renewal and multi-lineage differentiation capacity. Thirdly, to further investigate the potential of CASIN to vacate the BM niche after mobilization, six-color staining of the BM cells was performed from C57Bl/6 mice with or without CASIN treatment followed by FACS analysis. […] Therefore, a transient decrease in BM and a concomitant increase in peripheral organs of HSCs would be beneficial to facilitating the subsequent HSC transplantation.
To determinate the hematopoietic progenitor content in the PB of mobilized C57Bl/6 mice, colony-forming unit assay was performed as described previously. Briefly, 200 ul PB was plated in triplicate into methylcellulose (MethocultM3434; StemCell Technology, Vancouver, BC, Canada). Colonies were then counted 7 d later.

[2] = test system: donor cell engraftment; assay: Example 9 mobilization as preparative regimen for HSC transplantation; format: in vivo, mice; settings: compared to the non-mobilization control
Procedure: If the microenvironmental niches are vacated after CASIN exposure, donor HSCs might engraft better in hosts treated with a mobilizing agent such as CASIN compared with non-mobilized controls. To test this, bone marrow transplantation is performed on recipient mice which are pre-conditioned with CASIN. […] Additionally, AMD3100, G-CSF, and control medium are used in parallel with CASIN as controls.
Briefly, mice are treated with CASIN, and 4×10^7 donor bone marrow cells from congenic mouse strain are transplanted 48 h later. Donor cell engraftment is assayed at 3 months using the congenic markers by flow cytometry.
Additionally, multiple cycles of mobilization with CASIN may increase the number of available niches. Therefore, this study investigates whether repeated cycles of CASIN mobilization, each followed by donor cell transplantation, could result in increased engraftment. Briefly, mice receive one weekly injection of CASIN on 3 consecutive weeks and 4×10^7 donor marrow cells are transplanted 48 hours after each mobilization. Control animals also received 3 weekly infusions of 4×10^7 donor marrow cells but no CASIN. And the donor engraftment is assayed at 3 months after transplantation as well.

[3] = test system: Fancc−/− mice; assay: Example 10 preparative regimen for BM transplantation in Fancc−/− mice; format: in vivo; settings: preconditioning before BM transplantation
Procedure: Four preparative regimens before BM transplantation on Fancc−/− mice are used to evaluate the capacity of CASIN as a preconditioning agent: (1) Control group; (2) CY group: a single dose of 40 mg/kg CY intraperitoneally; (3) CASIN group: 2.5 mg/Kg; (4) combination of CASIN and CY: one injection of CASIN is given in combination with reduced doses of CY.
Fancc−/− mice are preconditioned with each of these four regimens, and 4×10^7 BM cells from congenic strain mice are transplanted into preconditioned mice by tail vein injection. Mice that underwent transplantation are bled every four weeks to monitor the chimerism of donor-derived cells in PB. And at 3 m, the mice are sacrificed to evaluate the engraftment of donor-derived cells in BM.

[4] = test system: Fancc−/− mice; assay: Example 10 HSC/P mobilization in Fancc−/− mice; settings: mouse, in vivo
Procedure: The effects of CASIN on HSC/P mobilization in Fancc−/− mice are investigated under four groups in parallel with WT mice: (1) Control group; (2) G-CSF group: 2.5 μg G-CSF per mouse, twice a day for 4 d120; (3) CASIN group: 2.5 mg/Kg; (4) combination of CASIN and G-CSF: one injection of CASIN is given 40 h before the end of 4 d G-CSF administration.
Fancc−/− or WT mice are mobilized with regimens corresponding to the four experimental groups. Then PB are harvested by cardiac puncture. Phenotypically, the absolute number and percentage of HSC/Ps in PB after mobilization are determined as those of LSK (Lin− Sca+ c-Kit+) cells by flow cytometry. Functionally, CFU-C assay is performed in triplicate for each mouse by using PB of mice from different experimental groups, and CFU-GM, CFU-GEMM, BFU-E, and CFU-E are distinguished by morphology and using cytokine combinations. Furthermore, the long-term repopulation capacity of the mobilized HSCs is evaluated using a competitive repopulating assay and subsequent secondary transplantation as discussed above.

Molecule	mobilization of colony-forming progenitors [1]	engraftment of donor cells in pre-conditioned recipients [2]	repopulation and engraftment of donor derived cells in PB and BM of Fancc−/− recipient mice [3]	mobilization of HSC/Ps (LSK cells, progenitor colonies) in Fancc−/− mice [4]
c1cc(CN2CCCNCCNCCCNCC2)ccc1CN1CCCNCCNCCCNCC1 [AMD3100, reference compound]	can mobilize colony-forming progenitors	significantly increased engraftment of donor cells		
O=P1(N(CCCl)CCCl)NCCCO1 (stereo not drawn) [CY, reference compound]			comparable engraftment and repopulation	
G-CSF: growth factor, currently available HSPC mobilization agent (protein, UniProt P09919 31-207, looked up) Granulocyte …: TPLGPASSLPQSFLLKCLEQVRKIQGDGAALQEKLVSECATYKLCHPEELVLLGHSLGIPWAPLSSCPSQALQLAGCLSQLHSGLFLYQGLLQALEGISPELGPTLDTLQLDVADFATTIWQQMEELGMAPALQPTQGAMPAFASAFQRRAGGVLVASHLQSFLEVSYRVLRHLAQP	can mobilize colony-forming progenitors	significantly increased engraftment of donor cells		less effective mobilizer of HSC/Ps in Fancc−/− mice than in WT mice
